Measurements published in US9428483B2, “Prodrug of fluorine-containing amino acid” (TAISHO PHARMACEUTICAL CO., LTD., priority 2012, dated 2016).

What was measured:
[1] = molecular target: mGluR3 (Homo sapiens, UniProt Q14832); conditions: read-out: EC50 value for the agonistic activity for mGluR3; cited from earlier work
[2] = system: conditioned avoidance response; conditions: schizophrenia model; cited from earlier work
[3] = system: phencyclidine-elicited head-weaving behavior; conditions: schizophrenia model; cited from earlier work
[4] = system: schizophrenia model rat; conditions: cited from earlier work
[5] = Test 5: plasma concentrations of Compound (IV) in monkey after oral administration; format: in vivo, cynomolgus monkeys
Method: A test to measure the plasma concentration of Compound (IV) upon oral administration of Compound (IV) and Inventive Compounds (I) was conducted in accordance with the following method.
Compound (IV) or Inventive Compounds (I) was orally administered to male cynomolgus monkeys (fed condition) at a dose of 4.92 μmol/kg (vehicle: 0.5% methyl cellulose (MC) solution; administered at a dose of 5 mL/kg).
Two and 4 hours after the oral administration, approximately 0.7 mL of blood was taken from the cephalic vein (anticoagulant: EDTA-2K). The plasma recovered by centrifugation (3000 rpm, 4° C.×10 min) was stored frozen at −80° C. until use for analysis. In the case of analysis, 50 μL of the plasma sample was thawed under cooling with ice and after adding 200 μL of a liquid acetonitrile/methanol mixture containing an internal standard substance, the resulting mixture was stirred and centrifuged (4° C.×10 min); the resulting supernatant was subjected to LC-MS/MS analysis. The lower quantitation limits of Inventive Compounds (I) and Compound (IV) were 1 ng/mL and 3 ng/mL, respectively.

[6] = Test 4: percent generation of Compound (IV) in human small intestine S9; format: in vitro ADME; conditions: 3 μM, 1 mg protein/mL, 37° C. x 1 hr
Method: A test to determine the percent generation of Compound (IV) in human intestine S9 was conducted for Inventive Compounds (I) in accordance with the following method.
Inventive Compounds were incubated (37° C.×1 hr) in a 0.1 M phosphate buffer (pH 7.4) together with a human intestine S9 fraction (Xenotech, LLC/CP710571/Lot, 710571) in the presence of Mg^2+ (5 mM), Ca^2+ (5 mM) and Zn^2+ (0.1 mM). The final concentrations of each Inventive Compound and the small intestine S9 protein were adjusted to 3 μM and 1 mg protein/mL, respectively. To the incubated reaction mixture, 3 volumes of DMSO was added, followed by stirring and centrifugation at 3000 rpm (4° C.×10 min). The resulting supernatant was subjected to analysis by a liquid chromatography-tandem mass spectrometry (LC-MS/MS) system. The lower quantitation limit was 0.3 μM for both Inventive Compounds (I) and Compound (IV).
The LC-MS/MS system used in the measurement was equipped with Waters XBridge Amide (3.5 μm, 50 mm×4.6 mm I.D.), Waters Atlantis T3 (3 μm, 50 mm×4.6 mm I.D.), or Shimadzu Shim-pack XR-ODS (2.2 μm, 30 mm×3.0 mm I.D.) as a separation column. The mobile phase was a 0.1% formic acid/acetonitrile solution or a 0.1% formic acid/methanol solution (flow rate: 0.7-1.3 mL/min) and the analyte was eluted in a linear gradient mode. MS/MS detection of Inventive Compounds (I) and Compound (IV) was performed using an API4000 or Triple quad 5500 system with TurbolonSpray interface (both being products of AB SCIEX) in either a positive or negative ion detection mode. The percent generation of Compound (IV) in human small intestine S9 is shown in the following Table 6 with respect to Inventive Compounds.

[7] = Test 1: Solution Stability Test; format: physicochemical; conditions: 37° C., one hour, about 50 μg/mL; for Compound's percent residue (%) pH 6.5: 20 mM phosphate buffer (pH 6.5); for Compound's percent residue (%) pH 1.2: hydrochloric acid solution (pH 1.2)
Method: Inventive Compounds (I) were tested for their stability in solutions simulating the gastric and small intestine's digestive fluids identified below.
The percent residues of Inventive Compounds (I) in a hydrochloric acid solution (pH 1.2) and 20 mM phosphate buffer (pH 6.5) were measured in accordance with the following test method.
A test compound was dissolved in a hydrochloric acid solution (pH 1.2) containing hydrochloric acid and sodium chloride or a 20 mM phosphate buffer (pH 6.5) containing disodium hydrogenphosphate, sodium dihydrogenphosphate and sodium chloride to prepare a solution with a concentration of about 50 μg/mL (near the solubility if undissolved). The solution was incubated at 37° C. for an hour and the compound's concentration before and after the incubation was quantified by high-performance liquid chromatography to calculate the percent residue of the compound.

[8] = Test 2: generation of Compound (IV) in human hepatic microsomes; format: in vitro ADME; conditions: human hepatic microsome
Method: A test to determine the percent generation of Compound (IV) in human and monkey hepatic microsomes was conducted for Inventive Compounds (I) in accordance with the following method. As a control for comparison, an ethyl ester form of Compound (IV) (Reference Example 1) was used.
A test compound was incubated (37° C.×15 min) in a 0.250 M phosphate buffer (pH 7.4) containing 69 mM KCl, together with a human hepatic microsome (Ms) fraction (Xenotech/H630B/lot, 0810472) or a monkey Ms fraction (BD Biosciences/452413/lot, 94518) in the presence of a NADPH generation system (0.16 mM NADP^+, 2.4 mM MgCl2, 1.5 mM glucose-6-phosphate). The final concentrations of the test compound and hepatic Ms protein were adjusted to 3 μM and 1 mg protein/mL, respectively. To the incubated reaction mixture, 2 volumes of DMSO was added, followed by stirring and centrifugation at 3000 rpm (4° C.×10 min) The resulting supernatant was subjected to analysis by a liquid chromatography-tandem mass spectrometry (LC-MS/MS) system. The lower quantitation limit was 0.3 μM for both the test compound and Compound (IV).

Sequence of mGluR3 (Q14832 23-879): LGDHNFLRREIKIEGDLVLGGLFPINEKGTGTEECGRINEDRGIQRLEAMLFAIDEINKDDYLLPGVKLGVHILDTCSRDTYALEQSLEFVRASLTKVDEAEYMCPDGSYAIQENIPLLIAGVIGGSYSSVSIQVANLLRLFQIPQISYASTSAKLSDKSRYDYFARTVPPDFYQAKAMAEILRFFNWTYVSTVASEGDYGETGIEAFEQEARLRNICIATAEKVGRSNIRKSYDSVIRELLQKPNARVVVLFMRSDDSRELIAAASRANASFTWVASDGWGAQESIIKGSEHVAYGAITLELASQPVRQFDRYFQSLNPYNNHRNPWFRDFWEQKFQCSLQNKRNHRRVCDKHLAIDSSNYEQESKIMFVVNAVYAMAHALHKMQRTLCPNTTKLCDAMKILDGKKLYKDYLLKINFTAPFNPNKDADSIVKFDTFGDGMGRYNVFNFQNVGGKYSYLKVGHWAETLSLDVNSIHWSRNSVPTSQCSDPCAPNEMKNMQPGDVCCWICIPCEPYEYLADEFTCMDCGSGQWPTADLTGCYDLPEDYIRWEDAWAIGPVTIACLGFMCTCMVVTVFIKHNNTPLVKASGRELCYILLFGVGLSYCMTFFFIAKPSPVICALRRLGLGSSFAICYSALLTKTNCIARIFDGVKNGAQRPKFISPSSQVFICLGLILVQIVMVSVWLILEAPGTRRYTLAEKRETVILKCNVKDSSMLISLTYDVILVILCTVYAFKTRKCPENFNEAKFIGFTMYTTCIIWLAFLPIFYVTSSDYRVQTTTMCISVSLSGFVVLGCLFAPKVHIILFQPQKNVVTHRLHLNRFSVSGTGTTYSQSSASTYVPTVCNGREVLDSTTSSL

Row | SMILES | Percent generation (%) of Compound IV in human small intestine S9 [6] | Compound's percent residue (%) pH 6.5 [7] | Compound's percent residue (%) pH 1.2 [7] | further results
1 | C[C@H](OC(=O)[C@H]1[C@@H]2C[C@H](F)[C@@](N)(C(=O)O)[C@@H]21)OC(=O)C12CC3CC(CC(C3)C1)C2.Cl | – | – | – | melting point: 164 °C (dec.)
2 | N[C@]1(C(=O)O)[C@H]2[C@@H](C[C@@H]1F)[C@@H]2C(=O)O [Compound IV, (1S,2S,3S,5R,6S)-2-amino-3-fluorobicyclo[3.1.0]hexane-2,6-dicarboxylic acid] | – | – | – | EC50 [1]: 45.4 nM; effect on conditioned avoidance response [2]: has the effect of suppressing; effect on phencyclidine-elicited head-weaving behavior [3]: has the effect of suppressing; ED50 value, suppressing phencyclidine-elicited hyperactivity [4]: 5.1 mg/kg; oral absorbability ([5]; in monkeys): poor
3 | CSCC[C@H](N)C(=O)N[C@]1(C(=O)O)[C@H]2[C@@H](C[C@@H]1F)[C@@H]2C(=O)O.Cl [Ex. D-1, (1S,2S,3S,5R,6S)-2-((S)-2-amino-4-(methylthio)butanamide)-3-fluorobicyclo[3.1.0]hexane-2,6-dicarboxylic acid hydrochloride] | 20.9% | 102% | 103% | Concentration (ng/mL) of Compound IV in monkey plasma, After 2 hr ([5]; oral 4.92 μmol/kg, male cynomolgus monkeys (fed), 2 hr): 141 ng/mL; Concentration (ng/mL) of Compound IV in monkey plasma, After 4 hr ([5]; oral 4.92 μmol/kg, male cynomolgus monkeys (fed), 4 hr): 128 ng/mL
4 | Cl.NCC(=O)N[C@]1(C(=O)O)[C@H]2[C@@H](C[C@@H]1F)[C@@H]2C(=O)O [Ex. D-3, (1S,2S,3S,5R,6S)-2-(2-aminoacetamide)-3-fluorobicyclo[3.1.0]hexane-2,6-dicarboxylic acid hydrochloride] | <10% | 102% | 100% | –
5 | CCC[C@H](N)C(=O)N[C@]1(C(=O)O)[C@H]2[C@@H](C[C@@H]1F)[C@@H]2C(=O)O.Cl [Ex. D-4, (1S,2S,3S,5R,6S)-2-((S)-2-amino-4-methylbutanamide)-3-fluorobicyclo[3.1.0]hexane-2,6-dicarboxylic acid hydrochloride] | <10% | 100% | 101% | –
6 | CC[C@H](C)[C@H](N)C(=O)N[C@]1(C(=O)O)[C@H]2[C@@H](C[C@@H]1F)[C@@H]2C(=O)O.Cl [Ex. D-6, (1S,2S,3S,5R,6S)-2-((2S,3S)-2-amino-3-methylpentanamide)-3-fluorobicyclo[3.1.0]hexane-2,6-dicarboxylic acid hydrochloride] | <10% | 101% | 101% | –
7 | CC(C)C[C@H](N)C(=O)N[C@]1(C(=O)O)[C@H]2[C@@H](C[C@@H]1F)[C@@H]2C(=O)O.Cl [Ex. D-7, (1S,2S,3S,5R,6S)-2-((S)-2-amino-4-methylpentanamide)-3-fluorobicyclo[3.1.0]hexane-2,6-dicarboxylic acid hydrochloride] | 11.7% | 102% | 99% | –
8 | CCOC(=O)[C@H]1[C@@H]2C[C@H](F)[C@@](N)(C(=O)O)[C@@H]21 [Ref. Ex. 1, (1S,2S,3S,5R,6S)-2-amino-6-(ethoxycarbonyl)-3-fluorobicyclo[3.1.0]hexane-2-carboxylic acid] | – | – | – | test compound remaining unchanged [8]: approximately 100%
